Test results from ChEMBL document CHEMBL2016467, “Thiosemicarbazone fragment embedded within 1,2,4-triazole ring as inhibitors of Entamoeba histolytica” (Bioorg Med Chem Lett, 2012).

What was measured:
Entamoeba histolytica = assay: Antiamoebic activity against Entamoeba histolytica HM-1:IMSS trophozoites after 72 hrs by microdilution method; assay type: functional, organism-based
MCF7 [1] = assay: Cytotoxicity against human MCF7 cells after 48 hrs by MTT assay; assay type: cell-based; details: MCF7, 48 h
[2] = Cytotoxicity against human MCF7 cells assessed as cell viability at 2.5 to 100 uM after 48 hrs by MTT assay; assay type: cell-based; details: read-out: Activity
MCF7 [3] = assay: Cytotoxicity against human MCF7 cells assessed as cell viability at 250 uM after 48 hrs by MTT assay; assay type: cell-based; details: mcf7, 48 h

COc1cc(/C=N/n2c(S)nnc2-c2ccccc2)cc(OC)c1OC
IC50 (Entamoeba histolytica): 2700 nM

Nn1c(S)nnc1-c1ccccc1
IC50 (Entamoeba histolytica): 10800 nM

Cc1ccc(/C=N/n2c(S)nnc2-c2ccccc2)cc1
IC50 (Entamoeba histolytica): 1380 nM | IC50 (MCF7 [1]): > 250000 nM | viability at 48 h, up to 100 µM [2]: 65% | Activity (MCF7 [3]): Non-toxic

COc1ccc(/C=N/n2c(S)nnc2-c2ccccc2)cc1
IC50 (Entamoeba histolytica): 322 nM | IC50 (MCF7 [1]): > 250000 nM | viability at 48 h, up to 100 µM [2]: 60% | Activity (MCF7 [3]): Non-toxic

COc1ccc(OC)c(/C=N/n2c(S)nnc2-c2ccccc2)c1
IC50 (Entamoeba histolytica): 8790 nM

O=[N+]([O-])c1ccc(/C=N/n2c(S)nnc2-c2ccccc2)cc1
IC50 (Entamoeba histolytica): 280 nM | IC50 (MCF7 [1]): > 250000 nM | viability at 48 h, up to 100 µM [2]: 60% | Activity (MCF7 [3]): Non-toxic

CN(C)c1ccc(/C=N/n2c(S)nnc2-c2ccccc2)cc1
IC50 (Entamoeba histolytica): 309 nM | IC50 (MCF7 [1]): > 250000 nM | viability at 48 h, up to 100 µM [2]: 65% | Activity (MCF7 [3]): Non-toxic

FC(F)(F)c1ccccc1/C=N/n1c(S)nnc1-c1ccccc1
IC50 (Entamoeba histolytica): 4680 nM

S=C(N1CCC(Cc2ccccc2)CC1)N1CCC(c2cccc(Cl)c2)=N1
IC50 (Entamoeba histolytica): 1000 nM

Cc1nnc2n(NC(=S)NC34CC5CC(CC(C5)C3)C4)c(C)nnc1-2
IC50 (Entamoeba histolytica): 840 nM

O=[N+]([O-])c1ccc(/C=N/NC(=S)N2CCCCCCC2)s1
IC50 (Entamoeba histolytica): 1710 nM

COc1cc(/C=N/n2c(-c3ccccc3)n[nH]c2=S)ccc1O
IC50 (Entamoeba histolytica): 3050 nM

Oc1ccc(/C=N/n2c(-c3ccccc3)n[nH]c2=S)cc1
IC50 (Entamoeba histolytica): 10200 nM

S=c1[nH]nc(-c2ccccc2)n1/N=C/c1ccc(Cl)cc1
IC50 (Entamoeba histolytica): 9550 nM

Cc1ncc([N+](=O)[O-])n1CCO [METRONIDAZOLE]
IC50 (MCF7 [1]): > 250000 nM | viability at 48 h, up to 100 µM [2]: > 70% | Activity (MCF7 [3]): Non-toxic

NNC(N)=S [THIOSEMICARBAZIDE]
IC50 (Entamoeba histolytica): 2290 nM
